Numbers after ± are expanded uncertainties.
Tests used:
[1] = xn = mol fraction of the nth substance listed; details: 101 kPa, Liquid; for speed of sound: Pulse-echo method; for mass density: Vibrating tube method
[2] = excess molar enthalpy (molar enthalpy of mixing); xn = mol fraction of the nth substance listed; details: 308.15 K, 101 kPa, Liquid, Power-compensation calorimetry

Cc1ccccc1Cl [2-chlorotoluene] + C1COCO1
[1]
Details	mass density, 298.15 K [kg/m3]	mass density, 303.15 K [kg/m3]	mass density, 308.15 K [kg/m3]	speed of sound, 298.15 K [m/s]	speed of sound, 303.15 K [m/s]	speed of sound, 308.15 K [m/s]
x1 = 0.0902	1061.1 ± 1	1054.9 ± 1	1048.7 ± 1	1326.8 ± 1.1	1304.4 ± 1.1	1281.7 ± 1.1
x1 = 0.1536	1062.6 ± 1	1056.4 ± 1	1050.4 ± 1	1320 ± 1.1	1297.8 ± 1.1	1275.2 ± 1.1
x1 = 0.2167	1064 ± 1	1057.9 ± 1	1052 ± 1	1314.3 ± 1.1	1292.5 ± 1.1	1270.4 ± 1.1
x1 = 0.2734	1065.2 ± 1	1059.3 ± 1	1053.4 ± 1	1310.1 ± 1.1	1288.8 ± 1.1	1267 ± 1.1
x1 = 0.3169	1066.1 ± 1	1060.2 ± 1	1054.4 ± 1	1307.4 ± 1.1	1286.4 ± 1.1	1265.1 ± 1.1
x1 = 0.3843	1067.5 ± 1	1061.7 ± 1	1055.9 ± 1	1303.8 ± 1.1	1283.5 ± 1.1	1262.7 ± 1.1
x1 = 0.4301	1068.4 ± 1	1062.7 ± 1	1057 ± 1	1301.9 ± 1.1	1281.9 ± 1.1	1261.4 ± 1.1
x1 = 0.4831	1069.4 ± 1	1063.7 ± 1	1058.1 ± 1	1300.1 ± 1.1	1280.3 ± 1.1	1260.3 ± 1.1
x1 = 0.5278	1070.2 ± 1	1064.6 ± 1	1059 ± 1	1298.9 ± 1.1	1279.3 ± 1.1	1259.6 ± 1.1
x1 = 0.5834	1071.2 ± 1	1065.7 ± 1	1060.2 ± 1	1297.8 ± 1.1	1278.4 ± 1.1	1258.7 ± 1.1
x1 = 0.6265	1071.9 ± 1	1066.5 ± 1	1061 ± 1	1297.3 ± 1.1	1277.9 ± 1.1	1258.3 ± 1.1
x1 = 0.6793	1072.7 ± 1	1067.4 ± 1	1062 ± 1	1296.8 ± 1.1	1277.4 ± 1.1	1258 ± 1.1
x1 = 0.7315	1073.6 ± 1	1068.3 ± 1	1063 ± 1	1296.6 ± 1.2	1277.3 ± 1.2	1257.8 ± 1.1
x1 = 0.7829	1074.4 ± 1	1069.1 ± 1	1063.9 ± 1	1296.7 ± 1.2	1277.4 ± 1.2	1257.9 ± 1.2
x1 = 0.8242	1075 ± 1	1069.8 ± 1	1064.7 ± 1	1296.9 ± 1.2	1277.6 ± 1.2	1258.1 ± 1.2
x1 = 0.8565	1075.4 ± 1	1070.3 ± 1	1065.2 ± 1	1297.1 ± 1.2	1277.8 ± 1.2	1258.5 ± 1.2
x1 = 0.9013	1076 ± 1	1071 ± 1	1066 ± 1	1297.5 ± 1.2	1278.5 ± 1.2	1259.3 ± 1.2
x1 = 0.9325	1076.5 ± 1	1071.5 ± 1	1066.5 ± 1	1297.8 ± 1.2	1279 ± 1.2	1260.1 ± 1.2
x1 = 1	1077.3 ± 1	1072.5 ± 1	1067.6 ± 1	1298.7 ± 1.2	1280.7 ± 1.2	1262.7 ± 1.2

[2]
Details	excess molar enthalpy [kJ/mol]
x1 = 0.0945	0.151 ± 0.002
x1 = 0.1378	0.211 ± 0.002
x1 = 0.1987	0.276 ± 0.003
x1 = 0.2396	0.313 ± 0.003
x1 = 0.2914	0.352 ± 0.004
x1 = 0.3467	0.376 ± 0.004
x1 = 0.3962	0.392 ± 0.004
x1 = 0.4532	0.4 ± 0.004
x1 = 0.4991	0.393 ± 0.004
x1 = 0.5432	0.383 ± 0.004
x1 = 0.5899	0.368 ± 0.004
x1 = 0.6329	0.343 ± 0.003
x1 = 0.6923	0.307 ± 0.003
x1 = 0.7321	0.272 ± 0.003
x1 = 0.8021	0.211 ± 0.002
x1 = 0.8492	0.164 ± 0.002
x1 = 0.8912	0.122 ± 0.002
x1 = 0.9319	0.0779 ± 0.0014

Reference: the NIST ThermoML archive (doi:10.1021/je400722h)
